Drawing on US20190134005A1 (BioMarin Pharmaceutical Inc., priority 2016, published 2019), this text covers IC50 for 36 compounds.

This experiment concerns the target T1, human CGT (Homo sapiens, UniProt Q16880).
T1 sequence (Q16880 21-541): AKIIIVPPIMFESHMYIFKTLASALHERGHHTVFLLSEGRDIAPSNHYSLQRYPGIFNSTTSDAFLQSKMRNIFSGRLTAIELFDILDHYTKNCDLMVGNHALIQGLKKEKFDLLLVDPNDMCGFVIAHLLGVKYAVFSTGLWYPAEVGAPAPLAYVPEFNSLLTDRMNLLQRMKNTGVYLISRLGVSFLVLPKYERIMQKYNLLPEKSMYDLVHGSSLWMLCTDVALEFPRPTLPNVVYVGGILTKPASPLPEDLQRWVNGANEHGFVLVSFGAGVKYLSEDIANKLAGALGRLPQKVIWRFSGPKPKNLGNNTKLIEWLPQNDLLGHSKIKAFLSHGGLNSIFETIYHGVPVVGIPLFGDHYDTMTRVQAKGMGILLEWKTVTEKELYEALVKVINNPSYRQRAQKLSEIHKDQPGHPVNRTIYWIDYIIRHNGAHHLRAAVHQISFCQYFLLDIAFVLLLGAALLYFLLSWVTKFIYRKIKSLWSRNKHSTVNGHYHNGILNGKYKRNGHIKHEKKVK
The experiment can be described thus: Assay 1: CGT Enzymatic Assay (RapidFire/MS/MS, 0.01% Tween 80). Format: biochemical. The settings on record: Table 1, Compounds of Formula (I) and Formula (II); CGT enzymatic assay; read-out: IC50.

pIC50: −log10 of the molar value.

What is called pIC50 is −log10 of the IC50, conventionally taken in molar units.

As for `C[C@@]1(C(F)(F)F)N(c2ccc(Cl)cc2)C(=O)N(c2ccc(Cl)cc2)C1(O)c1cccc(C#N)c1` (single isomer, unassigned) [Example 177-2], the pIC50 was 5.00 to 6.00. As for `CC[C@@]1(C)N(c2ccc(Cl)cc2)C(=O)N(c2ccc(Cl)cc2)C1(O)c1cccc(C#N)c1` (single isomer, unassigned) [Example 185-1], the figure is 4.30 to 5.00; as for `CC[C@]1(C)N(c2ccc(Cl)cc2)C(=O)N(c2ccc(Cl)cc2)C1(O)c1cccc(C#N)c1` (single isomer, unassigned) [Example 185-2], over 6.00; as for `CC(C)[C@H]1N(c2ccc(C(F)(F)F)cc2)C(=O)N(c2ccc(C(F)(F)F)cc2)C1(O)c1cccc(OC(F)(F)F)c1` (single isomer, unassigned) [Example 196-2], over 6.00. As for `Cc1cccc([C@@]2(C)C(O)N(c3ccc(Cl)cc3)C(=O)N2c2ccc(Cl)cc2)c1` (single isomer, unassigned) [Example 222-1], the figure is 4.30 to 5.00; as for `Cc1cccc([C@]2(C)C(O)N(c3ccc(Cl)cc3)C(=O)N2c2ccc(Cl)cc2)c1` (single isomer, unassigned) [Example 222-2], over 6.00; as for `C[C@]1(c2ccccc2)C(O)N(c2ccc(Cl)cc2)C(=O)N1c1ccc(Cl)cc1` (single isomer, unassigned) [Example 223-1], 4.30 to 5.00.

On to `C[C@@]1(c2ccccc2)C(O)N(c2ccc(Cl)cc2)C(=O)N1c1ccc(Cl)cc1` (single isomer, unassigned) [Example 223-2], for which the pIC50 was over 6.00. In the case of `CCC1N(c2ccc(Cl)cc2)C(=O)N(c2ccc(Cl)cc2)C1(O)c1cccc(OC(F)(F)F)c1` (stereo in doubt) [Compound 82-1, (5S)-1,3-bis(4-chlorophenyl)-5-ethyl-4-hydroxy-4-(3-(trifluoromethoxy)phenyl)imidazolidin-2-one] it was over 6.00. As for `CCC1N(c2ccc(Cl)cc2)C(=O)N(c2ccc(Cl)cc2)C1(O)c1cccc(OC(F)(F)F)c1` (stereo in doubt) [Compound 82-2, (5R)-1,3-bis(4-chlorophenyl)-5-ethyl-4-hydroxy-4-(3-(trifluoromethoxy)phenyl)imidazolidin-2-one], the figure is over 6.00; as for `CCC1N(c2ccc(Br)cc2)C(=O)N(c2ccc(Br)cc2)C1(O)c1cccc(OC(F)(F)F)c1` (stereo in doubt) [Compound 83-1, (5S)-1,3-bis(4-bromophenyl)-5-ethyl-4-hydroxy-4-(3-(trifluoromethoxy)phenyl)imidazolidin-2-one], over 6.00; as for `CCC1N(c2ccc(Br)cc2)C(=O)N(c2ccc(Br)cc2)C1(O)c1cccc(OC(F)(F)F)c1` (stereo in doubt) [Compound 83-2, (5R)-1,3-bis(4-bromophenyl)-5-ethyl-4-hydroxy-4-(3-(trifluoromethoxy)phenyl)imidazolidin-2-one], over 6.00. As for `CCCC1N(c2ccc(Br)cc2)C(=O)N(c2ccc(Br)cc2)C1(O)c1ccccc1` (stereo not drawn) [Compound 51], the figure is over 6.00; as for `O=C1N(c2ccc(Br)cc2)CC(O)(c2cccnc2)N1c1ccc(Br)cc1` (stereo not drawn) [Compound 52, 1,3-bis(4-bromophenyl)-4-hydroxy-4-(pyridin-3-yl)imidazolidin-2-one], 4.30 to 5.00; as for `O=C1N(c2ccc(Br)cc2)CC(O)(c2cccc(OC(F)(F)F)c2)N1c1ccc(Br)cc1` (stereo not drawn) [Compound 58, 1,3-bis(4-bromophenyl)-4-hydroxy-4-(3-(trifluoromethoxy)phenyl)imidazolidin-2-one], over 6.00. Regarding `CC(C)c1cccc(C2(O)CN(c3ccc(Br)cc3)C(=O)N2c2ccc(Br)cc2)c1` (stereo not drawn) [Compound 59, 1,3-bis(4-bromophenyl)-4-hydroxy-4-(3-isopropylphenyl)imidazolidin-2-one], the pIC50 is 5.00 to 6.00. In the case of `C#Cc1cccc(C2(O)CN(c3ccc(Cl)cc3)C(=O)N2c2ccc(Cl)cc2)c1` (stereo not drawn) [Compound 60, 1,3-bis(4-chlorophenyl)-4-(3-ethynylphenyl)-4-hydroxyimidazolidin-2-one] it was over 6.00; in that of `N#Cc1ccc(C2(O)CN(c3ccc(Br)cc3)C(=O)N2c2ccc(Br)cc2)cc1` (stereo not drawn) [Compound 61, 4-(1,3-bis(4-bromophenyl)-4-hydroxy-2-oxoimidazolidin-4-yl)benzonitrile], under 4.30.

`CC1N(c2ccc(Cl)cc2)C(=O)N(c2ccc(Cl)cc2)C1(O)c1cccc(Cl)c1` (stereo not drawn) [Compound 62, 4-(3-chlorophenyl)-1,3-bis(4-chlorophenyl)-4-hydroxy-5-methylimidazolidin-2-one]: the pIC50 was over 6.00. As for `N#Cc1cccc(C2(O)CN(c3ccc(Cl)cc3)C(=O)N2c2ccc(Cl)cc2)c1` (stereo not drawn) [Compound 63, 3-(1,3-bis(4-chlorophenyl)-4-hydroxy-2-oxoimidazolidin-4-yl)benzonitrile], the figure is over 6.00; as for `O=C1N(c2ccc(Cl)cc2)CC(O)(c2cccc(F)c2)N1c1ccc(Cl)cc1` (stereo not drawn) [Compound 64, 1,3-bis(4-chlorophenyl)-4-(3-fluorophenyl)-4-hydroxyimidazolidin-2-one], 5.00 to 6.00; as for `O=c1n(-c2ccc(Cl)cc2)c(-c2cccc(OC(F)(F)F)c2)c(C2CC2)n1-c1ccc(Cl)cc1` [Compound 65, 1,3-bis(4-chlorophenyl)-4-cyclopropyl-5-(3-(trifluoromethoxy)phenyl)-1,3-dihydro-2H-imidazol-2-one], over 6.00. In the case of `CC1N(c2ccc(Br)cc2)C(=O)N(c2ccc(Br)cc2)C1(O)c1cccc(OC(F)(F)F)c1` (stereo not drawn) [Compound 66, 1,3-bis(4-bromophenyl)-4-hydroxy-5-methyl-4-(3-(trifluoromethoxy)phenyl)imidazolidin-2-one] it was over 6.00; in that of `C[C@@H]1N(c2ccc(Br)cc2)C(=O)N(c2ccc(Br)cc2)C1(O)c1cccc(OC(F)(F)F)c1` (stereo partly drawn) [Compound 66-1, (5S)-1,3-bis(4-bromophenyl)-4-hydroxy-5-methyl-4-(3-(trifluoromethoxy)phenyl)imidazolidin-2-one], over 6.00.

`C[C@H]1N(c2ccc(Br)cc2)C(=O)N(c2ccc(Br)cc2)C1(O)c1cccc(OC(F)(F)F)c1` (stereo partly drawn) [Compound 66-2, (5R)-1,3-bis(4-bromophenyl)-4-hydroxy-5-methyl-4-(3-(trifluoromethoxy)phenyl)imidazolidin-2-one]: the pIC50 is over 6.00. As for `CCC1N(c2ccc(Br)cc2)C(=O)N(c2ccc(Br)cc2)C1(O)c1cccc(C(F)(F)F)c1` (stereo not drawn) [Compound 67, 1,3-bis(4-bromophenyl)-5-ethyl-4-hydroxy-4-(3-(trifluoromethyl)phenyl)imidazolidin-2-one], the figure is over 6.00; as for `CC[C@@H]1N(c2ccc(Br)cc2)C(=O)N(c2ccc(Br)cc2)C1(O)c1cccc(C(F)(F)F)c1` (stereo partly drawn) [Compound 67-1, (5S)-1,3-bis(4-bromophenyl)-5-ethyl-4-hydroxy-4-(3-(trifluoromethyl)phenyl)imidazolidin-2-one], over 6.00.

On to `CC[C@H]1N(c2ccc(Br)cc2)C(=O)N(c2ccc(Br)cc2)C1(O)c1cccc(C(F)(F)F)c1` (stereo partly drawn) [Compound 67-2, (5R)-1,3-bis(4-bromophenyl)-5-ethyl-4-hydroxy-4-(3-(trifluoromethyl)phenyl)imidazolidin-2-one], for which the pIC50 was over 6.00. In the case of `CCc1cccc(C2(O)C(C)N(c3ccc(Br)cc3)C(=O)N2c2ccc(Br)cc2)c1` (stereo not drawn) [Compound 68, 1,3-bis(4-bromophenyl)-4-(3-ethylphenyl)-4-hydroxy-5-methylimidazolidin-2-one] it was over 6.00. As for `CCc1cccc(C2(O)[C@H](C)N(c3ccc(Br)cc3)C(=O)N2c2ccc(Br)cc2)c1` (stereo partly drawn) [Compound 68-1, (5S)-1,3-bis(4-bromophenyl)-4-(3-ethylphenyl)-4-hydroxy-5-methylimidazolidin-2-one], the figure is over 6.00. For `CCc1cccc(C2(O)[C@@H](C)N(c3ccc(Br)cc3)C(=O)N2c2ccc(Br)cc2)c1` (stereo partly drawn) [Compound 68-2, (5R)-1,3-bis(4-bromophenyl)-4-(3-ethylphenyl)-4-hydroxy-5-methylimidazolidin-2-one], the pIC50 is over 6.00. As for `CCc1cccc(C2(O)C(C)N(c3ccc(Cl)cc3)C(=O)N2c2ccc(Cl)cc2)c1` (stereo not drawn) [Compound 69, 1,3-bis(4-chlorophenyl)-4-(3-ethylphenyl)-4-hydroxy-5-methylimidazolidin-2-one], the figure is over 6.00; as for `CCc1cccc(C2(O)[C@H](C)N(c3ccc(Cl)cc3)C(=O)N2c2ccc(Cl)cc2)c1` (stereo partly drawn) [Compound 69-1, (5S)-1,3-bis(4-chlorophenyl)-4-(3-ethylphenyl)-4-hydroxy-5-methylimidazolidin-2-one], over 6.00. On to `CCc1cccc(C2(O)[C@@H](C)N(c3ccc(Cl)cc3)C(=O)N2c2ccc(Cl)cc2)c1` (stereo partly drawn) [Compound 69-2, (5R)-1,3-bis(4-chlorophenyl)-4-(3-ethylphenyl)-4-hydroxy-5-methylimidazolidin-2-one], for which the pIC50 was over 6.00. In the case of `O=c1n(-c2ccc(Cl)cc2)c(-c2cccc(OC(F)F)c2)c(C2CC2)n1-c1ccc(Cl)cc1` [Compound 70, 1,3-bis(4-chlorophenyl)-4-cyclopropyl-5-(3-(difluoromethoxy)phenyl)-1,3-dihydro-2H-imidazol-2-one] it was over 6.00; in that of `COc1cccc(C2(O)[C@H](C)N(c3ccc(Br)cc3)C(=O)N2c2ccc(Br)cc2)c1` (stereo partly drawn) [Compound 71-1, (5S)-1,3-bis(4-bromophenyl)-4-hydroxy-4-(3-methoxyphenyl)-5-methylimidazolidin-2-one], over 6.00.
